Assay results as given in US20230226089A1, “METHODS AND COMPOSITIONS FOR TREATING DISEASES ASSOCIATED WITH SENESCENCE” (Atropos Therapeutics, Inc., priority 2019, published 2023).

How the values were obtained:
HGPS fibroblasts = experiment: Senescent cells (ATRX foci vs nuclear area) in progeria patient fibroblasts; type: cell-based, human
Procedure: Normal diploid fibroblasts (NDF) and fibroblasts from a patient with premature aging syndrome (HGPS) were used to model human skin and to determine the effect of calcitriol on senescence in these cells. Calcitrol, a synthetic version of Vitamin D3, can reverse some symptoms of progeria. To assess the effect of calcitrol on senescence NDF and HGPS fibroblasts were cultured and treated with 0.5 μM calcitriol for up to 10 days. Cells were then stained for SA-β-gal. FIG. 11A and FIG. 11B show representative images of SA-β-gal negative and positive cells respectively. […] This experiment was repeated at least three times using different passages, a representative similarly passaged experiment is shown. […] The horizontal line demarcates the 90th percentile in ATRX foci number, a stringent definition of the senescent state. The vertical line demarcates the 70th percentile of nuclear area. Cells in the upper right quadrant are senescent (ATRX^highNV^large). […]
The natural extracts were also tested on fibroblast cells as described in Example 4. NDF and HGPS fibroblasts were treated with the natural product extracts for 7 days and then assessed for ATRX foci number, cell size and cell number, as indicated in the experimental design in FIG. 19. […] The data shown is representative of at least two different experiments for each mixture analyzed at multiple doses and multiple times.

LS8817^TetONFMDM2 cells = experiment: SA-β-gal positive cells in LS8817 TetON FLAG-MDM2 cells; type: cell-based
Procedure: The ability of tipifarnib to induce senescence was confirmed in the LS8817^TetONFMDM2 cells used in Example 2. LS8817^TetONFMDM2 cells were treated with either doxycycline alone for 8 days (DOX, black), doxycycline for three days followed by […] of 10 μg/ml doxycycline and 0.2 μM palbociclib (PD+DOX, Brown), or doxycycline for two days followed by three days of doxycycline and palbociclib followed by five days of doxycycline+palbociclib+0.1 μM tipifarnib (PD+DOX->tipi, green). ATRX foci and nuclear size were evaluated as describe previously. […] ATRX foci are shown in green, and DAPI staining in blue. […] The cells treated with 3 days of doxycycline and palbociclib followed by 5 days of tipifarnib had SA-β-gal in about 60% of cells compared to the cells treated with doxycycline and palbociclib for 8 days which had SA-β-gal in less than 10% of cells. Treatment with tipifarnib caused a greater than 6-fold increase in the number of senescent cells.

C=C1/C(=C\C=C2/CCC[C@]3(C)[C@@H]([C@H](C)CCCC(C)(C)O)CC[C@@H]23)C[C@@H](O)C[C@@H]1O [calcitriol]
accumulation of senescent cells (ATRX foci number, nuclear size distribution) (HGPS fibroblasts; 0.5 μM calcitriol up to 10 days): decreased the accumulation of senescent cells | percentage of senescent cells (ATRX high, large nuclear area quadrant) (HGPS fibroblasts; HGPS cells, treated 7 days, about 10% without treatment): about 0%

CC(=O)c1c(C)c2cnc(Nc3ccc(N4CCNCC4)cn3)nc2n(C2CCCC2)c1=O [palbociclib]
cells positive for SA-β-gal (LS8817^TetONFMDM2 cells; doxycycline and palbociclib for 8 days): less than 10% | cells SA-β-gal positive (LS8817^TetONFMDM2 cells; palbociclib alone (without doxycycline)): about 80%

Cn1cncc1[C@@](N)(c1ccc(Cl)cc1)c1ccc2c(c1)c(-c1cccc(Cl)c1)cc(=O)n2C [tipifarnib]
cells positive for SA-β-gal (LS8817^TetONFMDM2 cells; 3 days doxycycline and palbociclib followed by 5 days tipifarnib): about 60% | increase in the number of senescent cells (LS8817^TetONFMDM2 cells; tipifarnib added vs doxycycline and palbociclib 8 days): greater than 6 fold
